The values below come from patent US9345247B2, “Azaindole carboxylic acid amides and azaindole thiocarboxylic acid amides for use as insecticides and acaricides” (BAYER CROPSCIENCE AG, priority 2012, dated 2016).

The test system of one data set is Boophilus microplus. The experiment in a line: Boophilus microplus test (BOOPMI injection). In kind it is in vivo. The settings on record: 20 μg/animal, after 7 days. How it is done: Boophilus microplus Test (BOOPMI Injection) [table] To produce a suitable active compound formulation, 10 mg of active compound are mixed with 0.5 ml of solvent and the concentrate is diluted with solvent to the desired concentration. The active compound solution is injected into the abdomen (Boophilus microplus), and the animals are transferred into dishes and stored in a climate-controlled room. After 7 days, the efficacy in % is determined. The activity is assessed by laying of fertile eggs. 100% means that none of the ticks has laid any fertile eggs.

The subject of another data set is Ctenocephalides felis. The experiment in a line: Ctenocephalides felis; oral (CTECFE). Type of data set: in vivo. Particulars: 100 ppm, oral in cattle blood, after 2 days. The protocol:
Ctenocephalides felis; Oral (CTECFE)
To produce a suitable active compound formulation, 10 mg of active compound are mixed with 0.5 ml of dimethyl sulphoxide. A portion of the concentrate is diluted with citrated cattle blood, and the desired concentration is prepared.
About 20 unfed adult fleas (Ctenocephalides felis) are placed into a chamber which is closed at the top and bottom with gauze. A metal cylinder whose bottom end is closed with parafilm is placed onto the chamber. The cylinder contains the blood/active compound preparation, which can be imbibed by the fleas through the parafilm membrane.
After 2 days, the kill in % is determined 100% means that all fleas have been killed; 0% means that none of the fleas have been killed.

The subject of the next data set is Lucilia cuprina larvae. The experiment in a line: Lucilia cuprina test (LUCICU). The settings on record: 100 ppm, after 2 days. Type of data set: in vivo. How it is done: Lucilia cuprina Test (LUCICU) [table] To produce a suitable active compound formulation, 10 mg of active compound are mixed with 0.5 ml of dimethyl sulfoxide, and the concentrate is diluted with water to the desired concentration. Vessels containing horse meat treated with the active compound formulation of the desired concentration are populated with about 20 Lucilia cuprina larvae. After 2 days, the kill in % is determined 100% means that all the larvae have been killed; 0% means that none of the larvae have been killed.

The test system of the next data set is adult Musca domestica. The experiment in a line: Musca domestica test (MUSCDO). In kind it is in vivo. The settings on record: 100 ppm, after 2 days. How it is done:
Musca domestica Test (MUSCDO) [table] To produce a suitable active compound formulation, 10 mg of active compound are mixed with 0.5 ml of dimethyl sulfoxide, and the concentrate is diluted with water to the desired concentration. Vessels containing a sponge treated with the active compound formulation of the desired concentration are populated with adult Musca domestica. After 2 days, the kill in % is determined 100% means that all flies have been killed; 0% means that no flies have been killed.

Data set [1] concerns green peach aphid (Myzus persicae). Kind of data set: Myzus persicae spray test (MYZUPE). In kind it is in vivo. Particulars: 100 g/ha, after 6 days. The protocol:
Myzus persicae-Spray Test (MYZUPE) [table] To produce a suitable active compound formulation, 1 part by weight of active compound is mixed with the stated amounts of solvent and emulsifier, and the concentrate is diluted with emulsifier-containing water to the desired concentration. Discs of Chinese cabbage leaves (Brassica pekinensis) infested by all stages of the green peach aphid (Myzus persicae) are sprayed with an active compound formulation of the desired concentration. After 6 days, the efficacy in % is determined 100% means that all the aphids have been killed; 0% means that none of the aphids have been killed.

Data set [2] deals with larvae of the mustard beetle (Phaedon cochleariae). Kind of data set: Phaedon cochleariae spray test (PHAECO). Particulars: 100 g/ha, spray, after 7 days. Type of data set: in vivo. The gist of the method: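 Chinese cabbage (Brassica pekinensis) leaf discs sprayed with compound in emulsifier-containing water at the desired concentration, dried, then infested with larvae. Efficacy scored after 7 days as % larvae killed (100% = all dead, 0% = none).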

Data set [3] deals with caterpillars of the armyworm (Spodoptera frugiperda). Kind of data set: Spodoptera frugiperda spray test (SPODFR). Particulars: 100 g/ha, spray, after 7 days. Type of data set: in vivo.
Data set [4] has as its system greenhouse red spider mite (Tetranychus urticae). Kind of data set: Tetranychus urticae spray test, OP-resistant (TETRUR). Type of data set: in vivo. The settings on record: 100 g/ha, spray, after 6 days. How it is done: To produce a suitable active compound formulation, 1 part by weight of active compound is mixed with the stated amounts of solvent and emulsifier, and the concentrate is diluted with emulsifier-containing water to the desired concentration.
Discs of bean leaves (Phaseolus vulgaris) infested by all stages of the greenhouse red spider mite (Tetranychus urticae) are sprayed with an active compound formulation of the desired concentration.
After 6 days, the efficacy in % is determined 100% means that all the spider mites have been killed; 0% means that none of the spider mites have been killed. […]

The nature of data set [5]: log P by HPLC on reversed-phase column (C18), EEC directive 79/831 Annex V.A8. The settings on record: HPLC, acidic range pH 2.7, 43° C. In kind it is physicochemical. A digest of the protocol:
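log P determined per EEC directive 79/831 Annex V.A8 by reversed-phase C18 HPLC at 43 °C, calibrated with unbranched alkan-2-ones (C3–C16) of known log P. Acidic-range determination at pH 2.7 with 0.1% formic acid acetonitrile/water, linear 10–95% acetonitrile gradient.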

Take `CCn1c(C(=O)NC(c2ccc(F)c(Cl)c2)C(F)(F)F)cc2cc(C(=O)NC3(C#N)CC3)c(C)nc21` (stereo not drawn) [Compound 10]: the “efficacy (laying of fertile eggs)” value with Boophilus microplus is 100%. Besides, the “efficacy (kill)” value in the data set with Ctenocephalides felis, in the data set with Lucilia cuprina larvae and in the data set with adult Musca domestica was 100% in each case. The efficacy in [1] came out at 90%; in [2], 100%; in data set [3], 100%; in [4], 100%. The compound also came in with a log p in [5] of 3.51.

For `CCn1c(C(=O)NC(c2cccc(C(F)(F)F)c2)C(F)(F)F)cc2cc(C(=O)NC3(C#N)CC3)c(Cl)nc21` (stereo not drawn) [Compound 11], the “efficacy (laying of fertile eggs)” value in the data set with Boophilus microplus turned out to be 100%. For the same compound, the “efficacy (kill)” value in the data set with Ctenocephalides felis, with Lucilia cuprina larvae and in the data set on adult Musca domestica was 100% each time. In addition, the efficacy in data set [1], in [2], in data set [3] and in [4] was 100% each time. In data set [5], the log p is recorded as 3.68.

As to `CCn1c(C(=O)NC(c2ccc(F)c(Cl)c2)C(F)(F)F)cc2cc(C(=O)NC3(C#N)CC3)c(Cl)nc21` (stereo not drawn) [Compound 26], in the data set with Boophilus microplus, the “efficacy (laying of fertile eggs)” value was 100%. Further, the “efficacy (kill)” value in the data set on Ctenocephalides felis, with Lucilia cuprina larvae and in the data set with adult Musca domestica was 100% in each case. Besides, the efficacy in data set [1], in data set [2], in data set [3] and in data set [4] was 100% in each case. In [5], this compound registered a log p of 3.62.
